The subject of data set [1] is four Gram-positive and four Gram-negative bacterial strains. Briefly: Antibacterial microdilution broth method, whole panel. It is filed as cell-based. On the technique in general: Dilution methods test growth across graded concentrations, often in twofold steps.
Data set [2] has as its system eight human pathogenic fungi. Briefly: Antifungal microdilution broth method, whole panel. Format: cell-based. To be noted: not reported in Table 2, read-out: MIC, all fungal strains tested.
Data set [3] can be described thus: in vitro. As to conditions: human; for IC50 at 24 h: HepG2 cells.
Procedure: (§1) Cytotoxicity of the tested compounds was measured using the standard hepatic cell line HepG2. The used CellTiter 96® assay is based on the reduction of tetrazolium dye (MTS) in living cells to formazan, which is then determined colorimetrically.
For data set [4], the target named is BuChE from equine serum (EqBuChE) (Equus caballus, UniProt P81908). The data set is described as follows: biochemical.
The subject of data set [5] is HepG2 cells.
Procedure: as §1
The target of data set [6] is AChE from electric eel (EeAChE) (Electrophorus electricus, UniProt O42275). The data set is described as follows: biochemical. It is filed as biochemical.
For data set [7], the system named is HepG2 cells. The data set is described as follows: LDH release assay (CytoTox 96), membrane integrity. As to conditions: read-out: EC50 LDH release assay; HepG2, 24 h incubation. Background: Release of lactate dehydrogenase indicates damage to the cell membrane.
Data set [8] is described as follows: in vitro. To be noted: human.
For data set [9], the system named is Acinetobacter baumannii ATCC 19606. Briefly: Antibacterial microdilution broth method (EUCAST). Format: cell-based.
In data set [10] the test system is Enterococcus faecalis ATCC 29212. Briefly: Antibacterial microdilution broth method (EUCAST). Format: cell-based.
The subject of data set [11] is Escherichia coli ATCC 25922. Briefly: Antibacterial microdilution broth method (EUCAST). Format: cell-based.
Data set [12] relates to Klebsiella pneumoniae ATCC 10031. As to conditions: for MIC KP 24 h: 24 h incubation; for MIC KP 48 h: 48 h incubation.
Data set [13] deals with Staphylococcus epidermidis ATCC 12228. The data set is described as follows: Antibacterial microdilution broth method (EUCAST). It is filed as cell-based.
The subject of data set [14] is Pseudomonas aeruginosa ATCC 27853. The data set is described as follows: Antibacterial microdilution broth method (EUCAST). It is filed as cell-based.
Data set [15] concerns methicillin-resistant Staphylococcus aureus ATCC 43300. Briefly: Antibacterial microdilution broth method (EUCAST). As to conditions: ATCC 43300 / MRSA. It is filed as cell-based.
In data set [16] the test system is Staphylococcus aureus ATCC 29213. Briefly: Antibacterial microdilution broth method (EUCAST). Format: cell-based.
Where [17] appears, read: read-out: MIC, all bacterial strains tested.
[18] abbreviates: mean ± SD, n = three independent experiments, BTCh 40 µM, read-out: IC50 BuChE.
[19] abbreviates: mean ± SD, n = three independent experiments, ATCh 40 µM, read-out: IC50 AChE.
[20] abbreviates: ATCC19606, 24 h, read-out: MIC ACI 24 h.
[21] abbreviates: ATCC19606, 48 h, read-out: MIC ACI 48 h.
Setting [22] is: ATCC29212, 24 h, read-out: MIC EF 24 h.
[23] abbreviates: ATCC29212, 48 h, read-out: MIC EF 48 h.
Setting [24] is: ATCC25922, 24 h, read-out: MIC EC 24 h.
The mark [25] stands for this setting: ATCC25922, 48 h, read-out: MIC EC 48 h.
Where [26] appears, read: ATCC12228, 24 h, read-out: MIC SE 24 h.
The mark [27] stands for this setting: ATCC12228, 48 h, read-out: MIC SE 48 h.
The mark [28] stands for this setting: ATCC27853, 24 h, read-out: MIC PA 24 h.
Where [29] appears, read: ATCC27853, 48 h, read-out: MIC PA 48 h.
The mark [30] stands for this setting: read-out: IC50 cytotoxicity towards HepG2 cell line, CellTiter 96, 24 h incubation.
Where [31] appears, read: ATCC29213, 24 h, read-out: MIC SA 24 h.
Setting [32] is: ATCC29213, 48 h, read-out: MIC SA 48 h.

From paper PMC8704707 (Pharmaceuticals, 2021) come the findings set out here.

Values after ≈ are worked out from the molar mass of the structure shown. Values joined by “and” are separate entries in the source; they are usually repeats but may differ in a detail not shown here. Equal entries are not always repeated. Where two headings read alike, the source gives them in different places. Where only a bound is given, the exact number is not on record here.

Chain of AChE from electric eel (EeAChE) (O42275 24-633): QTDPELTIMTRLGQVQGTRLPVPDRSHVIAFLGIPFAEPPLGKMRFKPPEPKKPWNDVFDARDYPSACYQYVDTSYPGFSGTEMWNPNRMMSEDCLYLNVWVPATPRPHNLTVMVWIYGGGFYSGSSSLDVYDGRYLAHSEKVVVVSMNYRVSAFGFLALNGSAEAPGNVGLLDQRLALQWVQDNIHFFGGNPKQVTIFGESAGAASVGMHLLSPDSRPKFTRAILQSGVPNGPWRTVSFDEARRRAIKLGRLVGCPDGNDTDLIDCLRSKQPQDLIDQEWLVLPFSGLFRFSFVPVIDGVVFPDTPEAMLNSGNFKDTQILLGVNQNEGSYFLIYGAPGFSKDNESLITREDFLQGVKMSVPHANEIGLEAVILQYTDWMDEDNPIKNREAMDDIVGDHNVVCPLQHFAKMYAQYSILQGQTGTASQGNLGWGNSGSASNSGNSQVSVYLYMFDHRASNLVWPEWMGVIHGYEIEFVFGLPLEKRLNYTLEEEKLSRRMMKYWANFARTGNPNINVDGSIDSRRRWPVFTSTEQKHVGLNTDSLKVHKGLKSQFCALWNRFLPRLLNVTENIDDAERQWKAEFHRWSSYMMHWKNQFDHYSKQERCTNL
Chain of BuChE from equine serum (EqBuChE) (P81908 whole entry): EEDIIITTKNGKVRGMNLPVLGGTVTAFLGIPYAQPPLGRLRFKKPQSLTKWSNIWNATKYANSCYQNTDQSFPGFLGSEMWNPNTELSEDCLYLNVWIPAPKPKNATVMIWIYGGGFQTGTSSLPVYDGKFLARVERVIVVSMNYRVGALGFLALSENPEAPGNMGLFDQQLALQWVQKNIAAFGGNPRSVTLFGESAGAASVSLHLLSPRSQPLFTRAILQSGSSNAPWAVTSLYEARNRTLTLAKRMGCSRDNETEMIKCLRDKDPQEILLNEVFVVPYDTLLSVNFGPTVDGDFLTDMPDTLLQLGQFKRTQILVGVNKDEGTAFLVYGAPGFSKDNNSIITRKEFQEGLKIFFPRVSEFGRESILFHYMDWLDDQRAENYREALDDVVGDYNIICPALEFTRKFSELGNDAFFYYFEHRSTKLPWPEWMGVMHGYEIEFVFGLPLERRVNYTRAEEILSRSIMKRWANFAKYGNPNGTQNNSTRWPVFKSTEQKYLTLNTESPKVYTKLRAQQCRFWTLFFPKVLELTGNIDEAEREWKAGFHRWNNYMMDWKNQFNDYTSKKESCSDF

The term MIC denotes the least concentration at which growth counts as inhibited. For orientation: IC50 means the midpoint of a concentration-inhibition curve. As usually defined, the EC50 is the concentration that produces a half-maximal response. As for `NC(N)=NN=C1C(=O)Nc2ccccc21` [Compound 1p, 2-(2-Oxoindolin-3-ylidene)hydrazine-1-carboximidamide], the MIC in data set [1] (setting [17]) and in data set [2] was no less than 500 µM each time. This molecule also yielded an IC50 at 24 h in “in vitro [3]” greater than 500 µM. Besides, in data set [4], the “Type of inhibition of BuChE” value is “mixed inhibition”. Moreover, the half-maximal inhibitory concentration (IC50) is < 20 µM and 17.5 µM in data set [4] (setting [18]); 17.9 ± 0.9 µM in data set [6] (setting [19]). Moreover, the “Cytotoxicity in HepG2 in words” value in the data set with HepG2 cells [5] (range of tested concentrations up to 500 µM) is recorded as “no significant cytotoxicity”. Also, the “Selectivity AChE/BuChE” value in data set [6] came out at 1.03. Also, the “Type of inhibition of AChE” value in [6] is recorded as “mixed inhibition”. In the data set with HepG2 cells [7], the EC50 came to 130 µM. In “in vitro [8]” (HepG2 cells), the EC50 at 24 h was greater than 100 µM.

As to `[H]/N=C(\N)NN=Cc1cc(I)cc(I)c1` [Compound 2c, (E)-2-(3,5-Diiodobenzylidene)hydrazine-1-carboximidamide], the minimal inhibitory concentration (MIC) was 250 µM (≈ 103 µg/mL) in [9] (setting [20]); 250 µM (≈ 103 µg/mL) in data set [9] (setting [21]); 31.2 to 125 µM (≈ 12.9 to 51.7 µg/mL) in [1] (read-out: MIC against staphylococci); 31.2 µM (≈ 12.9 µg/mL) in data set [10] (setting [22]); 31.2 µM (≈ 12.9 µg/mL) in [10] (setting [23]); 62.5 µM (≈ 25.9 µg/mL) in data set [11] (setting [24]). Also, the minimal inhibitory concentration (MIC) in data set [11] (setting [25]) is 62.5 µM (≈ 25.9 µg/mL); in data set [13] (setting [26]), 7.8 µM (≈ 3.23 µg/mL); in data set [13] (setting [27]), 7.8 µM (≈ 3.23 µg/mL); in data set [14] (setting [28]) it was 250 µM (≈ 103 µg/mL); in data set [14] (setting [29]), 250 µM (≈ 103 µg/mL); in data set [2] it was no less than 500 µM. The minimum inhibitory concentration (MIC) is 15.6 µM (≈ 6.47 µg/mL) in data set [15] (24 h, read-out: MIC MRSA 24 h); 15.6 µM (≈ 6.47 µg/mL) in data set [15] (48 h, read-out: MIC MRSA 48 h); 15.6 µM (≈ 6.47 µg/mL) in data set [16] (setting [31]); 15.6 µM (≈ 6.47 µg/mL) in data set [16] (setting [32]). Besides, the “MIC KP 24 h” value in data set [12] came out at 62.5 µM (≈ 25.9 µg/mL). For the same molecule, the “MIC KP 48 h” value in data set [12] is 62.5 µM (≈ 25.9 µg/mL). The IC50 at 24 h in the data set “in vitro [3]” was less than 11 µM. For the same molecule, the IC50 in data set [4] (setting [18]) is 85.5 ± 1.46 µM; with HepG2 cells [5] (setting [30]) it was 9.84 µM; in [6] (setting [19]), 29 ± 1.19 µM. For the same molecule, in [6], the “Selectivity AChE/BuChE” value stood at 0.34. The EC50 in the data set on HepG2 cells [7] came out at 5.44 µM. In the data set “in vitro [8]” (HepG2 cells), this molecule returned an EC50 at 24 h of less than 6 µM.

Turning to `[H]/N=C(\N)NN=Cc1cc(I)cc(I)c1O` [Compound 1m, (E)-2-(2-Hydroxy-3,5-diiodobenzylidene)hydrazine-1-carboximidamide], the MIC in data set [1] (setting [17]) and in data set [2] was no less than 500 µM each time. This molecule also yielded a half-maximal inhibitory concentration (IC50) at 24 h in the data set “in vitro [3]” greater than 29 µM. Besides, the half-maximal inhibitory concentration (IC50) was < 20 µM and 3.57 µM in data set [4] (setting [18]); 56.5 µM with HepG2 cells [5] (setting [30]); 29 ± 2.49 µM in [6] (setting [19]). Moreover, the EC50 in the data set on HepG2 cells [7] was found to be 21.3 µM. In “in vitro [8]” (HepG2 cells), the EC50 at 24 h is greater than 20 µM.

With `[H]/N=C(\N)NN=Cc1ccc([N+](=O)[O-])o1` [Compound 1n, (E)-2-[(5-Nitrofuran-2-yl)methylene]hydrazine-1-carboximidamide], the MIC in data set [9] (setting [20]) came out at 250 µM (≈ 49.3 µg/mL); in data set [9] (setting [21]), 500 µM (≈ 98.6 µg/mL); in data set [10] (setting [22]) it was 500 µM (≈ 98.6 µg/mL); in [10] (setting [23]), 500 µM (≈ 98.6 µg/mL); in data set [11] (setting [24]), 62.5 µM (≈ 12.3 µg/mL); in [11] (setting [25]), 125 µM (≈ 24.6 µg/mL). In addition, the minimum inhibitory concentration (MIC) in data set [13] (setting [26]) was 62.5 µM (≈ 12.3 µg/mL); in data set [13] (setting [27]) it was 125 µM (≈ 24.6 µg/mL); in data set [14] (setting [28]), 500 µM (≈ 98.6 µg/mL); in data set [14] (setting [29]), 500 µM (≈ 98.6 µg/mL); in data set [2] it was no less than 500 µM; in data set [15] (24 h, read-out: MIC MRSA 24 h), 125 µM (≈ 24.6 µg/mL). Moreover, the minimum inhibitory concentration (MIC) in data set [15] (48 h, read-out: MIC MRSA 48 h) worked out at 125 µM (≈ 24.6 µg/mL); in [16] (setting [31]), 62.5 µM (≈ 12.3 µg/mL); in data set [16] (setting [32]) it was 125 µM (≈ 24.6 µg/mL). Also, the “MIC KP 24 h” value in [12] was 250 µM (≈ 49.3 µg/mL). Besides, the “MIC KP 48 h” value in [12] was determined as 250 µM (≈ 49.3 µg/mL). In addition, the concentration for half-maximal inhibition (IC50) was less than 11 µM in “in vitro [3]”, 204 ± 13.2 µM in data set [4] (IC50 BuChE), 10.4 µM in the data set with HepG2 cells [5] (human) and 24.2 ± 0.75 µM in data set [6]. Besides, the “Selectivity AChE/BuChE” value in data set [6] worked out at 0.12. The “Type of inhibition of AChE” value in data set [6] is “mixed inhibition”. Besides, in the data set on HepG2 cells [7], the 50% effective concentration (EC50) worked out at 3.55 µM. Besides, the EC50 at 24 h in the data set “in vitro [8]” was less than 6 µM.
